Literature values, collected in US5654452A, “Lipophilic contrast agents for use in hepatocyte-selective oil-in-water emulsions” (Molecular Biosystems, Inc., priority 1995, dated 1997).

Tested on: reticulendothelial system (RES)
Details: in vivo

CCOC(=O)c1c(I)cc(I)c(NC(=O)CCCCC(=O)Nc2c(I)cc(I)c(C(=O)OCC)c2I)c1I [iodipamide ethyl esters]
uptake / liver specificity in reticuloendothelial system: liver specificity is mediated primarily via sequestration by the reticulendothelial system (RES)
